What was measured:
NIH/Swiss mice = conditions: for 60 min ED50: food intake, i.p.
CGRP receptors = molecular target: T1, CGRP receptors (Homo sapiens, UniProt O60894+Q16602); assay type: binding
T1 construct: SK-N-MC and L6 cells expressing endogenous CGRP receptors; endogenous in cells; host or cells: SK-N-MC cells (membranes)

amylin receptors = molecular target: T2, amylin receptors (Rattus norvegicus, UniProt P32214); assay type: binding
T2 construct: nuclueus accumbens membranes prepared from rat brain; from tissue; host or cells: rat basal forebrain / nucleus accumbens membranes (male Sprague-Dawley rats)
T2 sequence (P32214 25-516): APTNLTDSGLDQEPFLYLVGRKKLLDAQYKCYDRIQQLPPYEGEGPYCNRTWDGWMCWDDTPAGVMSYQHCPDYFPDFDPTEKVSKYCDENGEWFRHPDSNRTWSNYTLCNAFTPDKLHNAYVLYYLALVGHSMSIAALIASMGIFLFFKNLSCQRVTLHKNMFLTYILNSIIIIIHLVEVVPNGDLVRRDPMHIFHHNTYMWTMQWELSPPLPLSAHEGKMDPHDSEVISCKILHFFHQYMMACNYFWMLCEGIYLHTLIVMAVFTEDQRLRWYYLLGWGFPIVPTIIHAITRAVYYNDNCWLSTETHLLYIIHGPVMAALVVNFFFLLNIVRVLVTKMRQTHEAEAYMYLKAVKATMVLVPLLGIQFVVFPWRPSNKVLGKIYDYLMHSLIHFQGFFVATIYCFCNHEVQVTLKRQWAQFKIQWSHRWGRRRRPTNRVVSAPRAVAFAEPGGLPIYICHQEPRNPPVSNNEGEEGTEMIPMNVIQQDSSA
T2 sequence (Q9JJ74 27-148 partner): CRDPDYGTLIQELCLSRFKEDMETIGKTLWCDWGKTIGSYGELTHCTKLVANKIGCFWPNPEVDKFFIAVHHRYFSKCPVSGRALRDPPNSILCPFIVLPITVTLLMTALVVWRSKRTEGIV

calcitonin receptor = molecular target: T3, calcitonin receptor (Rattus norvegicus, UniProt P32214); assay type: binding
T3 construct: host or cells: general text: 'CHO cells or T47D cells'
T3 sequence (P32214 25-479 isoform P32214-2 limits assumed): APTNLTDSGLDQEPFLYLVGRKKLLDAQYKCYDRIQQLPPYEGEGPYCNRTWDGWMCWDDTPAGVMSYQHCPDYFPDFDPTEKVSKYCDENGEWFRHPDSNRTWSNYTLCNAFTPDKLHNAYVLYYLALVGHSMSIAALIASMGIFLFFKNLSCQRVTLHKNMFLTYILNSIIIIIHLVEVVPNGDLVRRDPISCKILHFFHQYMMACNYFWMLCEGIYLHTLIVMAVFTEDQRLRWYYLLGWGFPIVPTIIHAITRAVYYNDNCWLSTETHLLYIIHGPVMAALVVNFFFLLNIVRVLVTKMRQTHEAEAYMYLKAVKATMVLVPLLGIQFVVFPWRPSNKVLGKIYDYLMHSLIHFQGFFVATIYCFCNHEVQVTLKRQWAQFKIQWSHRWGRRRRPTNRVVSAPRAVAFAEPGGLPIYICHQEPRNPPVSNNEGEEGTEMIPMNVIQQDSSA

CT receptor = molecular target: T4, CT receptor (Rattus norvegicus, UniProt P32214); test: CT cyclase (C1A) assay; assay type: biochemical
T4 construct: host or cells: general text: 'CHO cells or T47D cells'
T4 sequence (P32214 25-479 isoform P32214-2 limits assumed): T3 sequence (P32214 25-479 isoform P32214-2 limits assumed)

C57BL/6 mice (DIO) = conditions: 250 nmol/kg/day

T1 sequence (Q16602 23-461): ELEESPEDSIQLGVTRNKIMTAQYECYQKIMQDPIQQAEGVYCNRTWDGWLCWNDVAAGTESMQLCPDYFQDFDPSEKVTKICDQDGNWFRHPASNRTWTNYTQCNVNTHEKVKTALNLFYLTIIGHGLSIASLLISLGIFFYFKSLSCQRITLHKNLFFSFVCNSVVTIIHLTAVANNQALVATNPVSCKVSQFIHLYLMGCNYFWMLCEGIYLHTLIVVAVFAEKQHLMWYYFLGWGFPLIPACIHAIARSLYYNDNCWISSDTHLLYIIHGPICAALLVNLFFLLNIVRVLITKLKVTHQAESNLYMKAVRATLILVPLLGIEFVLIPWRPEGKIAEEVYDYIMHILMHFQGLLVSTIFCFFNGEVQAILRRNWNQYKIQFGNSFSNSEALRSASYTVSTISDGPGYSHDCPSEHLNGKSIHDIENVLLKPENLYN
T1 sequence (O60894 27-148 partner): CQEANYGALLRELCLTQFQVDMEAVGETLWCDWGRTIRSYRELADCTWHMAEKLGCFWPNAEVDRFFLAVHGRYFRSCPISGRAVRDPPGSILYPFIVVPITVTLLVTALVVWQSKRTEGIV

[Ser117, dLeu119]leptin(116-122)-Amylin(1-7)-[^11,18Arg]sCT(8-27) -Amylin(33-37) [Compound 16]
anorexigenic effect in food intake assay (NIH/Swiss mice; 1 mg/kg): anorexigenic
anorexigenic effect compared with rat amylin (NIH/Swiss mice; rat amylin at 25 nmol/kg): superior to rat amylin
binding to CGRP receptor (CGRP receptors): some binding
binding to amylin receptor (amylin receptors): bound
binding to CT receptor (calcitonin receptor): bound
activation of the CT receptor (CIA assay) (CT receptor): able to activate

HGEGAFTSDLSKQLEEEAVRLFIEFLKN-NH2 [Compound 12, reference compound]
60 min ED50 (NIH/Swiss mice): 13 nmol/kg

KCNTATCATQRLANFLVRSSNNLGPVLPPTNVGSNTY-NH2 [Rat Amylin, reference compound]
60 min ED50 (NIH/Swiss mice): 9 nmol/kg

leptin
activity in food intake assay (NIH/Swiss mice; mouse, in vivo): not active

DY(SO3) MGWMDF-NH2 [CCK-8]
% change (body weight) in DIO assay at day 2 (C57BL/6 mice (DIO); day 2): ~−2.8%
body weight in DIO assay at day 7 (C57BL/6 mice (DIO); day 7): rebounded to the HF diet control level
